From US4547371A, “Substituted cephalosporin sulfones as anti-inflammatory and anti-degenerative agents” (Merck & Co., Inc., priority 1983, dated 1985)

Molecular target: T1, Human Polymorphonuclear Leukocyte Elastase (Homo sapiens, UniProt P08246)
T1 construct: Crude extract of human polymorphonuclear leukocytes (PMN) containing elastase activity; endogenous in cells; host or cells: human polymorphonuclear leukocytes (crude extract)
T1 sequence (P08246 30-247 limits assumed): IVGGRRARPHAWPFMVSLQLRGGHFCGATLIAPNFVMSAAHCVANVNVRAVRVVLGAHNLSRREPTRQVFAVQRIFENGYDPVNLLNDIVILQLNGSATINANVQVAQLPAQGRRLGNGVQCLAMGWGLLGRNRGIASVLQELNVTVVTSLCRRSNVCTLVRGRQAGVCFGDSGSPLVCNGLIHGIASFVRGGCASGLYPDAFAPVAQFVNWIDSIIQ
Test: Inhibition of human polymorphonuclear leukocyte elastase via hydrolysis of N-t-Boc-alanyl-alanyl-prolyl-alanine-p-nitroanilide
Type: biochemical
Settings: effective dosage for 50% inhibition of the enzyme activity 2 minutes after zero time; crude human PMN extract, Boc-AAPAN substrate, pH 7.5, 410 mμ; read-out: ED50 (the source's name) (converted)
Experimental: Protocol--Enzyme Assays for the Inhibition of Human Polymorphonuclear Leukocyte Elastase Via Hydrolysis of N-t-Boc-alanyl-alanyl-prolylalanine-p-nitroanilide
0.05M TES (N-tris[hydroxymethyl]methyl-2-amino-ethanesulfonic acid) Buffer, pH 7.5.
0.2 mM N-t-Boc-alanyl-alanyl-prolyl-alanine-p-nitroanilide (Boc-AAPAN).
To prepare substrate, the solid (m.w. 550) was first dissolved in 10.0 ml DMSO. Buffer at pH 7.5 was then added to a final volume of 100 ml.
Crude extract of human polymorphonuclear leukocytes (PMN) containing elastase activity.
Inhibitors (cephalosporin sulfone esters) to be tested dissolved in DMSO just before use.
To 1.0 ml of 0.2 mM Boc-AAPAN in a cuvette, 0.01-0.1 ml of DMSO with or without inhibitor was added. After mixing, a measurement was taken at 410 mμ to detect any spontaneous hydrolysis due to presence of test compound. 0.05 Milliliters of PMN extract was then added and the ΔOD /min at 410 mμ was measured and recorded. Beckman model 35 spectrophotometer was used.
Results were reported as ED50, i.e., effective dosage in micrograms per milliliter (μg/ml) for 50% inhibition of the enzyme activity 2 minutes after zero time.
The elastase activity in the crude PMN extract may vary from one preparation to another. A control of each new batch is run, and the volume added in the assay procedure is adjusted according to activity.

## O=C(OCc1ccccc1)C1=C(C(F)(F)F)CS(=O)(=O)[C@@H]2[C@@H](NC(=O)C(F)(F)F)C(=O)N12 (relative stereo) [CF3 CONH / CF3 / OCH2 .phi., Benzyl 3-trifluoromethyl-7α-trifluoromethylcarbonylamino-8-oxo-5-thia-1-azabicyclo[4.2.0]oct-2-ene-2-carboxylate-5,5-dioxide]
  IC50: 61.7 nM

## CC(C)(C)OC(=O)C1=C(C(F)(F)F)CS(=O)(=O)[C@@H]2[C@@H](NC(=O)C(F)(F)F)C(=O)N12 (relative stereo) [CF3 CONH / CF3 / OtBu, t-Butyl 3-trifluoromethyl-7α-trifluoromethylcarbonylamino-8-oxo-5-thia-1-azabicyclo[4.2.0]oct-2-ene-2-carboxylate-5,5-dioxide]
  IC50: 1770 nM

## CC(=O)OCC1=C(C(=O)OCc2ccccc2)N2C(=O)[C@H](NC(=O)C(F)(F)F)[C@H]2S(=O)(=O)C1 [NHCOCF3 / CH2 OCOCH3 / OCH2 .phi., Benzyl 3-acetyloxymethyl-7α-trifluoromethylcarbonylamino-8-oxo-5-thia-1-azabicyclo[4.2.0]oct-2-ene-2-carboxylate-5,5-dioxide]
  IC50: 81.6 nM

## COC(=O)N[C@H]1C(=O)N2C(C(=O)OCc3ccccc3)=C(COC(C)=O)CS(=O)(=O)[C@H]12 [NHCOOCH3 / CH2 OCOCH3 / OCH2 .phi., benzyl 3-acetyloxymethyl-7α-methoxycarbonylamino-8-oxo-5-thia-1-azabicyclo[4.2.0]oct-2-ene-2-carboxylate-5,5-dioxide]
  IC50: 663 nM
